Results as given in patent US4328231A, “Method of treating psoriasis” (Richter Gedeon Vegyeszeti Gyar Rt., priority 1979, dated 1982).
Counter-ions that a name gives are not always drawn.

What was measured:
phosphodiesterase [1] = test: Inhibition of phosphodiesterase isolated from rat brain tissue (radioisotopic technique, tritium-labelled c-AMP); assay type: biochemical; conditions: 20 minutes incubation, % of control
Experimental: Our model experiments were carried out by means of phosphodiesterase isolated from animal tissues. More particularly, the enzyme was isolated from the brain tissue of rats following the method of J. Schroder and H. V. Richenberg [Biochem. Biophys. Acta 302, 50 (1973)], whereupon the isolated phosphodiesterase was purified by the method of J. G. Hardman and E. W. Sutherland [J. Biol. Chem. 240, 3704 (1965)]. Finally, the activity of the purified enzyme was measured by the radioisotopic technique of G. Poch, in the presence of an excess amount of tritium-labelled c-AMP, in an incubator, initially without the inhibiting system and thereafter in the presence of a compound of the formula (I) as an inhibitor. The enzyme activity was determined after an incubation time of 20 minutes [N. S. Arch. Pharmacol. 268, 272 (1971)]. From the salts of the test compounds of the formula (I) aqueous 10^-3 molar stock solutions were prepared, their pH was adjusted to 4 to 5. To the incubated enzyme preparations suitable amounts of the stock solution were added in order to obtain a series of test solutions containing a compound of the formula (I) in a concentration of 10^-5, 5× 10^-5, 10^-4, 5×10^-4 and 10^-3 moles/lit. […] The degree of inhibition (decrease of enzyme activity) was expressed in % of the control (enzyme preparation containing no inhibitor).

psoriasis = conditions: Voorhees et al.; cited from earlier work
phosphodiesterase [2] = conditions: Voorhees et al.; cited from earlier work
phosphodiesterase [3] = test: Inhibition of phosphodiesterase isolated from rat brain tissue (radioisotopic technique, tritium-labelled c-AMP); assay type: biochemical; conditions: 20 minutes incubation, % of control; remark: listed apart in the source
adenyl cyclase = conditions: Voorhees et al.; cited from earlier work

Structure (SMILES) | Inhibition (%) obtained by 1 × 10^-4 moles/lit. concentrations of the test compounds (phosphodiesterase [1]) [%] | Inhibition (%) obtained by 1 × 10^-5 moles/lit. concentrations of the test compounds (phosphodiesterase [1]) [%] | Inhibition (%) obtained by 5 × 10^-5 moles/lit. concentrations of the test compounds (phosphodiesterase [1]) [%] | Inhibition (%) obtained by 5 × 10^-6 moles/lit. concentrations of the test compounds (phosphodiesterase [3]) [%] | influencing psoriasis (psoriasis) | inhibition of the function of phosphodiesterase (phosphodiesterase [2]) | stimulation of the function of adenyl cyclase (adenyl cyclase)
CCOC(=O)C1=C[C@]2(CC)CCCN3CCc4c(n1c1cc(OC)ccc41)[C@@H]32 [Apovincinic acid ethyl ester tartrate] | 58.6 | 23.7 | 44.0 | – | – | – | –
COc1ccc(Cc2nccc3cc(OC)c(OC)cc23)cc1OC [Papaverine, reference compound] | 56.4 | – | 36.4 | – | succeeded in influencing psoriasis | inhibit the function of phosphodiesterase | –
NC[C@H](O)c1ccc(O)c(O)c1 [norepinephrine] | – | – | – | – | succeeded in influencing psoriasis | – | stimulate the function of adenyl cyclase
Cn1c(=O)c2[nH]cnc2n(C)c1=O [Theophylline] | – | – | – | – | succeeded in influencing psoriasis | inhibit the function of phosphodiesterase | –
CC[C@@]12C=C(COC(C)=O)n3c4c(c5ccc(OC)cc53)CCN(CCC1)[C@H]42 [Tartrate salt of apovincinol-acetate] | 62.3 | 34.8 | 45.2 | 30.9 | – | – | –

Now from value to compound, other results behind:

Inhibition (%) obtained by 1 × 10^-4 moles/lit. concentrations of the test compounds (phosphodiesterase [1]) [%] | Inhibition (%) obtained by 1 × 10^-5 moles/lit. concentrations of the test compounds (phosphodiesterase [1]) [%] | Inhibition (%) obtained by 5 × 10^-5 moles/lit. concentrations of the test compounds (phosphodiesterase [1]) [%] | Inhibition (%) obtained by 5 × 10^-6 moles/lit. concentrations of the test compounds (phosphodiesterase [3]) [%] | Structure (SMILES) | influencing psoriasis (psoriasis) | inhibition of the function of phosphodiesterase (phosphodiesterase [2]) | stimulation of the function of adenyl cyclase (adenyl cyclase)
71.8 | 49.0 | 59.4 | 36.6 | CC[C@@]12C=C(C(=O)OC)n3c4c(c5ccc(OC)cc53)CCN(CCC1)[C@H]42 [Apovincine-KHSO4] | – | – | –
54.8 | 20.3 | 33.5 | 21.9 | CC[C@@]12C=C(C(=O)OC)n3c4c(c5ccccc53)CCN(CCC1)[C@H]42 [Apovincamine] | – | – | –
81.6 | 48.7 | 76.9 | 38.1 | CC[C@@]12C=C(C(=O)OC)n3c4c(c5ccc(OC)cc53)CCN(CCC1)[C@H]42 [Apovincine-tartrate] | – | – | –
76.9 | 22.0 | 60.0 | 10.0 | CC[C@@]12C=C(C(N)=O)n3c4c(c5ccccc53)CCN(CCC1)[C@H]42 [Apovincaminic acid amide] | – | – | –
57.0 | – | 32.0 | – | CC[C@@]12C=C(C(=O)NN)n3c4c(c5ccccc53)CCN(CCC1)[C@H]42 [Apovincaminic acid-hydrazide, apovincaminic acid hydrazide] | – | – | –
